Source: US20220142985A1, “AGENTS FOR TREATMENT OF ALCOHOL USE DISORDER” (SERVICIO ANDALUZ DE SALUD, priority 2018, published 2022)

Tests used:
adult male Wistar rats = test: Alcohol self-administration model; type: in vivo, rat; settings: for EC50 for inhibition of alcohol self-administration: acute administration 30 minutes before the session, 10% alcohol, non-linear regression, IC = confidence interval
Procedure: (§1) For the alcohol self-administration studies, 48 adult male Wistar rats (8 per group) (Harlan, Barcelona, Spain) weighing 375-425 g at the start of the experiments were individually housed in a 12-hour light/dark cycle (turned off at 12:00 p.m.) in a room at constant temperature (23±1° C.). Standard food and tap water were available ad libitum in the house cage. The animals were allowed to acclimate to the housing facilities for 2 weeks before the beginning of the alcohol self-administration protocol. For oxycodone self-administration, male Long-Evans rats (275-325 g) (Charles-River Laboratories, Raleigh, N.C.) were used throughout this study. Upon arrival, they were individually housed in a facility for animals under an inverted 12-h light/dark cycle (light turned on at 7:00 p.m.) with free access to food and water. They were allowed to acclimate to the new environment for at least 7 days before the start of the study. For alcohol consumption in the two-bottle choice paradigm, male Wistar rats weighing 250 g at the start of the experiments, or genetically selected Marchigian Sardinian (msP) male rats that prefer alcohol were used.
Animals were trained for the alcohol self-administration as previously described (Cippitelli et al., 2005. Eur J Neurosci. 21 (8):2243-51), in the room (Letica, model LE 850, Panlab, Barcelona, Spain) enclosed in sound-attenuating cages and equipped with an exhaust fan. The chambers were equipped with two retractable levers, one located on each side of a water pan.
The active lever side is equally distributed between sessions to prevent the development of location preferences. […] All the operant alcohol sessions lasted for 30 minutes per day 5 d/week (Monday to Friday). The amount of responses and the immersion presentations were automatically recorded by the computer software. The animals were weighed daily before the alcohol self-administration sessions. Training was carried out using a modification of the conventional saccharin fading method (Samson et al., 1999) described in Alen et al., 2009 (Nicotine Tob Res. 11 (11): 1304-11). For the first 3 days of training, the animals received a 0.2% saccharin solution in the dipper to facilitate the acquisition of the lever pressure level. After that point, the following sequence in a fixed ratio 1 was used: 0.16% saccharin and 2% alcohol for three sessions, 0.12% saccharin and 4% alcohol for three sessions, 0.08% saccharin and 6% alcohol for four sessions, 0.04% saccharin and 8% alcohol for four sessions, 0.02% saccharin plus 10% alcohol, and finally 10% alcohol alone for the remaining sessions. The first investigation was relatively similar, followed by a period of at least 6 weeks with access to alcohol (10% w/v). ciglitazone (0.01, 1.5, and 20 mg/kg), OEA (0.1, 1.5, and 20 mg/kg), WY 14643 (0.1, 5, 20, and 40) mg/kg), rimonabant (0.03, 0.3, 1, and 3 mg/kg), OLHHA (0.01, 0.1, 1, and 5 mg/kg), and NF 10-360 (1 mg/kg). The medicinal products were injected 30 minutes before the self-administration session. The animals were then left for a period of 24 hours, and then 30 minutes daily. The EtOH self-administration sessions were resumed and monitored.
(§2) GraphPad Prism v5.04 (GraphPad Software, San Diego, Calif., USA). Data was represented by means±SEM. EC50 values for the inhibition of alcohol, cocaine, or oxycodone self-administration were calculated using built-in non-linear regression equations. Supplementation with alcohol and the analysis of the effects of variability (ANOVA) with repeated measures (factors: treatment and treatment). Plasma metabolic parameters, cytokines, and liver mRNA resulting from the circulation expression were analyzed by means of a two-way ANOVA (factors: treatment (vehicle/OLHHA) and access to beverage ([…]/water)), and a multiple post hoc comparison test (Bonferroni) was performed. The p-value less than 0.05 was considered to be statistically significant.

Wistar rats = test: Alcohol consumption in the two-bottle choice model (Wistar rats, 10% alcohol); type: in vivo, rat; settings: 1 mg/kg, P<0.05, FIG. 2A
Procedure: as §1
Voluntary alcohol intake was evaluated in a two-bottle choice test, as previously described [Stopponi et al., 2011. […] Intakes were recorded daily 2, 8, and 24 hours after the administration of OLHHA. Alcohol, water, and food intake were monitored daily. […]

[1] = system: Marchigian Sardinian (msP) male rats; test: Alcohol consumption in the two-bottle choice model (msP rats that prefer alcohol, 20% alcohol); type: in vivo, rat; settings: 5 mg/kg daily
Procedure: as §1
(§3) Voluntary alcohol intake was evaluated in a two-bottle choice test, as previously described [Stopponi et al., 2011. Biol Psychiatry. 69(7):642-]. Wistar rats or rats selected due to their alcohol preference (msP) were trained to drink water, 10% alcohol (v/v) (Wistar), or 20% alcohol (msP) for 24 hours per day until reaching a stable alcohol intake baseline. At this point, the rats were divided into different groups (n=9-10/group) to be treated with vehicle, NF 10-360 (0 or 1 mg/kg), or OLHHA (5 mg/kg). In the case of msP rats, treatment with OLHHA continued for 14 consecutive days, and the drug or vehicle was administered once a day before the start of the dark period of the light/dark cycle. Intakes were recorded daily 2, 8, and 24 hours after the administration of OLHHA. Alcohol, water, and food intake were monitored daily. The animals were sacrificed on day 14, 2 hours after the last administration of OLHHA.

Long-Evans rats = test: Oxycodone self-administration; type: in vivo, rat; settings: FIG. 3G
Procedure: as §1, with “used. […]” for “used.”
Oxycodone self-administration is carried out in an operant chamber with two response levers and a 15 W house light (Med Associates Inc., Georgia, Vt., USA). […] The response of each animal has been recorded throughout the entire training and testing process. […]

[2] = Plasma metabolite and cytokine measurements after repeated OLHHA in msP rats; type: in vivo; settings: 5 mg/kg daily
Procedure: as §3
(§4) The rats were sacrificed 2 hours after the last dose. Treated animals and animals treated with OLHHA were anesthetized with sodium pentobarbital (50 mg kg-1, i.p.), and blood and liver samples were taken. The blood was centrifuged (2100 g for 8 min, 4° C.) and the plasma was kept for later analysis. The liver samples were rapidly frozen in liquid N^2 and stored at −80° C. until analysis.
The following metabolites, metabolic hormones, and cytokines were measured in plasma: metabolites glucose, triglycerides, cholesterol, uric acid, urea, creatinine, aspartate transaminase (GOT), alanine transaminase (GPT), interleukin-6, tumor necrosis factor α (TNF-a). They were analyzed in an automatic Hitachi 737 analyzer (Hitachi, Tokyo, Japan) according to the manufacturer's instructions. Levels of leptin, IL-6, and TNF-α were measured using commercial rat enzyme-linked immunosorbent assay kits (Abcam, Cambridge, United Kingdom).
as §2

[3] = system: liver mRNA of lipogenic enzymes, cytochrome c oxidase 4 and PPARα; test: Liver mRNA expression by RT qPCR after repeated OLHHA in msP rats; type: in vivo, rat; settings: 5 mg/kg daily
Procedure: as §3, §4
Real-time quantitative polymerase chain reaction (RT qPCR) was used to measure the relative quantification of the mRNA levels of the enzymes and proteins related to the oxidation of hand lipogenic fatty acids, as described in previous studies with OLHHA. [Decara et al., 2015. Dis Model Mech. 8(10): 1213-25]. Total mRNA was isolated using the Trizol® method according to the manufacturer's instructions (Gibco BRL Life Technologies, Baltimore, Md., USA). Resulting cDNA was used as templates for RT qPCR with an iCycler system (BioRad) using the Quanti-Test SYBR Green PCR kit (Qiagen, Hilden, Germany). The […] were provided by Sigma-Proligo (Proligo France SAS, Paris, France). Quantification was performed according to the following criteria [Decara et al., 2015. Dis Model Mech. 8(10): 1213-25]. The absolute values of each sample were normalized to observe β-actin mRNA (constitutive gene), which was used as a standard reference.
as §2, with “Supplementation with alcohol and the analysis of the effects of variability (ANOVA) with repeated measures (factors: treatment and treatment).” left out, “The p-value less than 0.05 was considered to be statistically significant.” left out

Structure (SMILES): CCCCCNC(=O)c1ccc(NC(=O)c2cccc(CN3C(=O)OC[C@H]3Cc3ccccc3)c2)cc1 [NF 10-360, 3-((4-benzyl-2-oxooxazolidin-3-yl)methyl)-N-(4-(pentylcarbamoyl)phenyl)benzamide]
- operant responses to a 10% ethanol solution (alcohol self-administration) (adult male Wistar rats; 1 mg/kg, P<0.01, FIG. 2B): reduced operant responses
- voluntary alcohol intake (Wistar rats): reduced alcohol intake

Structure (SMILES): CCCCCCCC/C=C\CCCCCCCC(=O)NCCO [OEA, oleoylethanolamide]
- EC50 for inhibition of alcohol self-administration (adult male Wistar rats): 6.5 (IC=3.2 to 13.2) mg/kg

Structure (SMILES): CCCCCCCC/C=C\CCCCCCCC(=O)NC(C)Cc1ccc(O)c(O)c1 (stereo not drawn) [OLHHA, N-[1-(3,4-dihydroxyphenyl)propan-2-yl]oleamide]
- alcohol self-administration tested 24 hours after administration (adult male Wistar rats; 24 hours after administration, FIG. 3B): absence of effects
- EC50 for inhibition of alcohol self-administration (adult male Wistar rats): 0.2 mg/kg
- total alcohol intake recorded throughout treatment ([1]; 14 days, P<0.05, FIG. 3F): reduced significantly
- alcohol intake 2 hours after injection ([1]; P<0.0001, FIG. 3C): reduced alcohol intake
- alcohol intake 8 h after administration ([1]; P<0.001, FIG. 3D): also observed
- alcohol intake after 24 h ([1]; P=0.047, FIG. 3E): virtually disappeared
- maximum inhibition of oxycodone self-administration (Long-Evans rats): 45 % of the control responses
- EC50 for reduction of oxycodone self-administration (Long-Evans rats; non-linear regression, IC = confidence interval): 11.3 mg/kg
- toxicity: creatinine ([2]; msP rats, FIG. 4F): no impact
- inflammation: plasma concentrations of IL-6 ([2]; msP rats, FIG. 4I): no effect
- inflammation: plasma concentrations of TNF ([2]; msP rats, FIG. 4J): no effect
- toxicity: transaminases ([2]; msP rats, FIGS. 4G and 4H): no impact
- circulating triglycerides ([2]; msP rats, P<0.001, FIG. 4B): reduced
- circulating cholesterol ([2]; msP rats, P<0.001, FIG. 4C): reduced
- circulating uric acid ([2]; msP rats, P<0.01, FIG. 4D): reduced
- glucose levels ([2]; rats exposed to alcohol, P<0.02, FIG. 4A): slightly reducing
- expression of mRNA of Fasn in liver ([3]; P<0.001, FIG. 4M): inhibited
- expression of PPAR receptor in liver ([3]; P<0.001, FIG. 4O): increased
- expression of mRNA of SCD1 in liver ([3]; P<0.01): inhibited
- expression of cytochrome c oxidase 4 in liver ([3]; P<0.01, FIG. 4N): increased

Structure (SMILES): Cc1c(C(=O)NN2CCCCC2)nn(-c2ccc(Cl)cc2Cl)c1-c1ccc(Cl)cc1 [Rimonabant, rimonabant]
- EC50 for inhibition of alcohol self-administration (adult male Wistar rats): 0.5 (IC=0.5 to 1.1) mg/kg
- maximum inhibition of alcohol self-administration (rank among reference ligands) (adult male Wistar rats; reference ligands, FIG. 1): achieved maximum inhibition

Structure (SMILES): Cc1cccc(Nc2cc(Cl)nc(SCC(=O)O)n2)c1C [WY14643, pirinixic acid]
- EC50 for inhibition of alcohol self-administration (adult male Wistar rats): 23.6 (IC=11.3 to 60.9) mg/kg

Structure (SMILES): CC1(COc2ccc(CC3SC(=O)NC3=O)cc2)CCCCC1 (stereo not drawn) [ciglitazone]
- EC50 for inhibition of alcohol self-administration (adult male Wistar rats): 5.9 (IC=2.7 to 15.7) mg/kg
